Experimental data from PMC8916643, “Molecular physiology of pumiliotoxin sequestration in a poison frog” (PLoS ONE, 2022).

Assays:
Assay in all cases: CYP phenotyping panel (PTX 251D clearance)
Assay type in all cases: in vitro ADME
Conditions in all cases: 1E-07 M PTX 251D; after 60 minutes
human recombinant CYP3A4 = target: T1, human recombinant CYP3A4 (Homo sapiens, UniProt P08684)
T1 construct: Eurofins Discovery Services (Eurofins Panlabs Inc) ran the assay
Description: (§1) Assays for human CYP activity (CYP phenotyping), CYP2D6 metabolite discovery (metID), ion channel inhibition (CiPA), and G-protein coupled receptor (GPCR) activity (gpcrMAX) were performed through Eurofins Discovery Services (Eurofins Panlabs Inc, St. Charles MO, USA). In the CYP phenotyping panel, human recombinant CYP1A2, CYP2B6, CYP2C8, CYP2C9, CYP2C19, CYP2D6, and CYP3A4 were included in the assay. A concentration of 1E-07 M of PTX 251D was tested, and the percent compound remaining was quantified at 0, 15, 30, 45, and 60 minutes using HPLC-MS/MS. As a positive control, a reference compound was used for each CYP tested (see S1 File for results). In the CYP2D6 metabolism assay, human recombinant CYP2D6 was incubated with an initial concentration of 10 μM and metabolites were quantified after 90 minutes using LC-MS/MS. Two replicates were used for the CYP phenotyping panel and one replicate was used for CYP2D6 metabolite assay. The CiPA assay was a cell-based QPatch on voltage-gated sodium channel NaV1.5 (peak and late/agonist), voltage-gated potassium channels Kv4.3/KChIP2, hERG, KCNQ1/minK, Kir2.1, and voltage-gated calcium channel Cav1.2. The concentrations of PTX 251D assayed were 3, 10, and 30 μM, and a reference compound for each channel was used (see S1 File for results and individual QPatch parameters). In the gpcrMAX assay a panel of 165 GPCRs was tested through the DiscoverX PathHunter beta-arrestin enzyme fragment complementation technology, and a concentration of 10 μM PTX 251D was tested for both agonist and antagonist activity along with a reference compound for each GPCR (see S1 File for results).

human recombinant CYP1A2 = target: T2, human recombinant CYP1A2 (Homo sapiens, UniProt P05177)
T2 construct: Eurofins Discovery Services (Eurofins Panlabs Inc) ran the assay
T2 sequence (P05177 1-516): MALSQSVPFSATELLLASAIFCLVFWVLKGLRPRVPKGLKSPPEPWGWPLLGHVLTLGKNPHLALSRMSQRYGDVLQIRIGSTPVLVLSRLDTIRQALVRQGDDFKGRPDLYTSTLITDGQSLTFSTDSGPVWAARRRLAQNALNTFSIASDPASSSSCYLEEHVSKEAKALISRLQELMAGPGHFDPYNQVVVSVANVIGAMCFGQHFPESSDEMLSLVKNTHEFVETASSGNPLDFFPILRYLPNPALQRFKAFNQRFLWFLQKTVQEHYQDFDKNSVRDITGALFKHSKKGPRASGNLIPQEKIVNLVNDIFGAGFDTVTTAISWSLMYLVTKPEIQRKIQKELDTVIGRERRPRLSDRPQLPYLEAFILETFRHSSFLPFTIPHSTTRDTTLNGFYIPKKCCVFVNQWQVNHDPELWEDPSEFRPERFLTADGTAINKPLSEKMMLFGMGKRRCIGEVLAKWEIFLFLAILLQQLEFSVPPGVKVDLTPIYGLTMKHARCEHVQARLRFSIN
Description: as §1

human recombinant CYP2B6 = target: T3, human recombinant CYP2B6 (Homo sapiens, UniProt P20813)
T3 construct: Eurofins Discovery Services (Eurofins Panlabs Inc) ran the assay
T3 sequence (P20813 1-491): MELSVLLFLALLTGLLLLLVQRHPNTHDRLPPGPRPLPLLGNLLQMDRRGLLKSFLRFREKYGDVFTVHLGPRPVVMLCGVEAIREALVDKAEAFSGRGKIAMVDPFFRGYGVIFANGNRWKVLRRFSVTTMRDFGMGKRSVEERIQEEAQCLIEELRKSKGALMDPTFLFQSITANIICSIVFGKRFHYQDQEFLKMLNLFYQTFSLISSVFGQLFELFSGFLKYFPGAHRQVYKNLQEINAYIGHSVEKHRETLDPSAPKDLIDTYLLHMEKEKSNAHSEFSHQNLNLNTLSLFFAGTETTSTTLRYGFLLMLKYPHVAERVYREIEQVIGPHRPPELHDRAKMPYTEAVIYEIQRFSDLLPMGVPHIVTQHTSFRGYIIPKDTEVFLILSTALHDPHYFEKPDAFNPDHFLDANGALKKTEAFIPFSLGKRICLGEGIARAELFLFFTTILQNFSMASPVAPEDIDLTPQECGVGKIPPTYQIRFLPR
Description: as §1

human recombinant CYP2C9 = target: T4, human recombinant CYP2C9 (Homo sapiens, UniProt P11712)
T4 construct: Eurofins Discovery Services (Eurofins Panlabs Inc) ran the assay
Description: as §1

T1 sequence (P08684 whole entry): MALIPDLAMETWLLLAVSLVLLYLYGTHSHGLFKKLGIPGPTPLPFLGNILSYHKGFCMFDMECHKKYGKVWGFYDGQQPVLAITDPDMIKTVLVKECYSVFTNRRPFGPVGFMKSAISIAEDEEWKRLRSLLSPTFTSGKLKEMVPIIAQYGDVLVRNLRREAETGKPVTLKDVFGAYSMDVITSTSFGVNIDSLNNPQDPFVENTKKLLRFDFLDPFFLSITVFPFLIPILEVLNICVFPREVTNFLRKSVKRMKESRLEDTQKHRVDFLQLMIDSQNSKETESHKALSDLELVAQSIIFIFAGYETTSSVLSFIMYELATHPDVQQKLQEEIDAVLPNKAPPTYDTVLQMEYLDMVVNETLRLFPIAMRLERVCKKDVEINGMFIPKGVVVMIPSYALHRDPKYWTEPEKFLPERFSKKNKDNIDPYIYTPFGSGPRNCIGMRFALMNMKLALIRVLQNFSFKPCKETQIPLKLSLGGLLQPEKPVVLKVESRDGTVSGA
T4 sequence (P11712 whole entry): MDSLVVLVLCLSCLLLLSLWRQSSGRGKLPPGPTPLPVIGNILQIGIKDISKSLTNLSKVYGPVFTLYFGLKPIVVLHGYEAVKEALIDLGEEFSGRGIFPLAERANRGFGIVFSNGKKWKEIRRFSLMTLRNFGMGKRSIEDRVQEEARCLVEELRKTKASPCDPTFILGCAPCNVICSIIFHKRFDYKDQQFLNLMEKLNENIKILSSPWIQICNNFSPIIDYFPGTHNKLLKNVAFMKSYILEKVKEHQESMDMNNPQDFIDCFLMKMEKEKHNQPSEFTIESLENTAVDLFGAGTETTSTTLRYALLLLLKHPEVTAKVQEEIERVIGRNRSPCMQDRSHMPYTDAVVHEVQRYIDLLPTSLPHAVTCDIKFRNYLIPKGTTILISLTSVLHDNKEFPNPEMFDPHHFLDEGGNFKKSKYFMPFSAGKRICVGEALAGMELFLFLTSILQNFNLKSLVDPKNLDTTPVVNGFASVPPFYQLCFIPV

CCCCC(C)C=C1CN2CCCC2C(C)(O)C1 (stereo not shown) [PTX 251D, pumiliotoxin (PTX 251D)]
minimal clearance: clearance of PTX 251D by CYP3A4 (human recombinant CYP3A4) | clearance of PTX 251D by CYP1A2 (human recombinant CYP1A2) | clearance of PTX 251D by CYP2B6 (human recombinant CYP2B6) | clearance of PTX 251D by CYP2C9 (human recombinant CYP2C9)
